This assay relates to 857933-349-R-J2-PDC complex spheroid viability. The experiment in a line: Anticancer human tumor 857933-349-R-J2-PDC patient-derived colon adenocarcinoma cell line growth inhibition [POLQ]. Particulars: for viability, T/C: stronger effect = lower value. As for the experimental part: Multicellular complex tumor spheroid response to Polymerase (POL) inhibitors (novobiocin, ART-558, RP6685) in combination with a variety of drugs and investigational agents in selected tumor cell lines
The POL inhibitors (novobiocin, ART-558, and RP6685) were evaluated both individually and in combination with standard of care and investigational anticancer small molecules within a complex spheroid model of solid tumors. . Complex spheroids include a stromal component modeled by human endothelial cells (HUVEC) and fibroblasts modeled by human mesenchymal stem cells (MSCs). The concentration ranges selected for each drug and investigational agent were based upon clinically achievable concentrations if the clinical Cmax of the agent was known.
Compounds. The drugs and investigational agents: novobiocin (NSC847541), ART-558 (NSC835418), RP-6685 (NSC848927), peposertib (NSC802822), ceralasertib (NSC780249), elimusertib (NSC800525), camonsertib (NSC841442), AZD-1390 (NSC803789), olaparib (NSC753686), talazoparib (NSC767125), rucaparib (NSC756644), sotorasib (NSC818433), MRTX-1133 (NSC836407), SN-38 (NSC673596), topotecan (NSC609699), epotoside (NSC141540), doxorubicin (NSC123127), gemcitabine (NSC613327), 5-fluorouracil (NSC19893), paclitaxel (NSC125973), vemurafenib (NSC761431), MSA-2 (NSC828583), SN-011 (NSC837082), adavosertib (NSC754352), prexasertib (NSC758257), carboplatin (NSC241240) and oxaliplatin (NSC266046), were obtained from the National Cancer Institute (NCI) Developmental Therapeutics Program Chemical Repository (21). The FDA-approved anticancer drug set is available from the Developmental Therapeutics Program at https://dtp.cancer.gov/organization/dscb/obtaining/. […] The stock solutions were prepared in dimethyl sulfoxide (DMSO, Sigma-Aldrich, St. Louis, MO, cat. D2650), except for the platinum compounds which were prepared in saline (Quality Biological, Gaithersburg, MD, cat. 114-055-101), at 800-fold the tested concentration and stored at -70 degrees C prior to their use. All drugs and investigational agents were tested over a range starting from a high concentration at or near the clinical Cmax and decreasing in half-log increments. If the clinical Cmax for an agent had not been determined, the highest concentration tested was 10 microM, except for SN-38, which was tested at a high concentration of 1 microM.
Cell Culture. All cells were maintained in an incubator at 37 degrees C and 5% CO2 with 95% humidity. The PDC lines were cultured according to standard operating procedures established by the NCI PDMR (https://pdmr.cancer.gov). Table 3 of the manuscript, lists the cell lines along with the number of the three cell types plated to form the mct-spheroids and media for tumor cell growth. After thawing, all PDC lines, except 997537-175-T-J1-PDC and 415267-285-R-J2-PDC, were cultured in Matrigel-coated flasks prepared with a working solution of 1X Ham's F-12 nutrient mix, without supplementation (Thermo Fisher Scientific, cat. 11765054), 100 U/mL penicillin-streptomycin (Thermo Fisher Scientific, cat. 15140122), and 2.5% Matrigel (Corning Inc., Corning, NY, cat. 354248) for the first three passages. The two PDC lines 997537-175-T-J1-PDC and 415267-285-R-J2-PDC were cultured on uncoated flasks. The 857933-349-R-J2-PDC line was cultured in 6C/Colon 1B media containing advanced DMEM/F-12 (Thermo Fisher Scientific, cat. 12634028), 10 mM HEPES (Thermo Fisher Scientific, cat. 15630080), 1X GlutaMAX supplement (Thermo Fisher Scientific, cat. 35050061), 0.1 mg/mL primocin (InvivoGen, San Diego, CA, cat. ant-pm-2), 10% defined fetal bovine serum, heat inactivated (HyClone Laboratories Inc., Logan, UT, cat. SH30070.03HI), 50% L-WRN conditioned media (ATCC, cat. CRL-3276), 1.25 mM N-Acetyl-L-cysteine (Sigma-Aldrich, cat. A9165), 10 mM nicotinamide (Sigma-Aldrich, cat. N0636), 1X B-27 supplement (Thermo Fisher Scientific, cat. 17504044), 1X N-2 supplement (Thermo Fisher Scientific, cat. […]

Several values for one entry are separate records, joined by “and”; a condition that tells them apart may be missing. Equal values may be shown once. Bounds are passed on as bounds.
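Also: spheroids exposed to compounds for seven days before readout.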

For orientation: IC50 means the point on the concentration scale where inhibition reaches its midpoint. The viability, T/C is the ratio of treated to control. In the case of `CC1COCCN1c1cc(C2(S(C)(=N)=O)CC2)nc(-c2ccnc3[nH]ccc23)n1` (stereo unspecified) + Nc1ccc(C#CCN(C(=O)Cc2ncc(C(F)(F)F)cc2C(F)(F)F)c2ccc(F)cc2)nn1, the IC50 is, setting by setting: (curve of first compound, second compound 0.0316 µM) 6.27 µM; (curve of first compound, second compound 0.1 µM) 7.41 µM; (curve of first compound, second compound 0.316 µM) 6.97 µM; (curve of first compound, second compound 1 µM) 6.44 µM; (curve of first compound, second compound 3.16 µM) 6.95 µM; (curve of first compound, second compound 10 µM) above 10 µM. Further, the viability, T/C is, setting by setting: (second compound 0.0316 µM, first compound 0.0316 µM) 85.9%; (second compound 0.0316 µM, first compound 0.1 µM) 110%; (second compound 0.0316 µM, first compound 0.316 µM) 107%; (second compound 0.0316 µM, first compound 1 µM) 81.7%; (second compound 0.0316 µM, first compound 3.16 µM) 60.8%; (second compound 0.0316 µM, first compound 10 µM) 43.2%. The viability, T/C (second compound 0.1 µM, first compound 0.0316 µM) was 95.3%; the viability, T/C (second compound 0.1 µM, first compound 0.1 µM) is 104%; the viability, T/C (second compound 0.1 µM, first compound 0.316 µM) is 88.8%; the viability, T/C (second compound 0.1 µM, first compound 1 µM) was 79%; the viability, T/C (second compound 0.1 µM, first compound 3.16 µM) was 63.4%; the viability, T/C (second compound 0.1 µM, first compound 10 µM) was 45.3%. Besides, the viability, T/C by setting is: (second compound 0.316 µM, first compound 0.0316 µM) 108%; (second compound 0.316 µM, first compound 0.1 µM) 107%; (second compound 0.316 µM, first compound 0.316 µM) 85.4%; (second compound 0.316 µM, first compound 1 µM) 83.2%; (second compound 0.316 µM, first compound 3.16 µM) 64.2%; (second compound 0.316 µM, first compound 10 µM) 43.2%. The viability, T/C runs as follows: (second compound 1 µM, first compound 0.0316 µM) 100%; (second compound 1 µM, first compound 0.1 µM) 102%; (second compound 1 µM, first compound 0.316 µM) 90.1%; (second compound 1 µM, first compound 1 µM) 74.6%; (second compound 1 µM, first compound 3.16 µM) 57.6%; (second compound 1 µM, first compound 10 µM) 45.4%. In addition, the viability, T/C reads like this: (second compound 3.16 µM, first compound 0.0316 µM) 96.2%; (second compound 3.16 µM, first compound 0.1 µM) 88.1%; (second compound 3.16 µM, first compound 0.316 µM) 89.3%; (second compound 3.16 µM, first compound 1 µM) 84.7%; (second compound 3.16 µM, first compound 3.16 µM) 59.9%; (second compound 3.16 µM, first compound 10 µM) 45.4%. Further, the viability, T/C by setting is: (second compound 10 µM, first compound 0.0316 µM) 96.5%; (second compound 10 µM, first compound 0.1 µM) 91.3%; (second compound 10 µM, first compound 0.316 µM) 93.5%; (second compound 10 µM, first compound 1 µM) 71.4%; (second compound 10 µM, first compound 3.16 µM) 71.1%; (second compound 10 µM, first compound 10 µM) 49.9%.

Turning to `CCc1cc2c(N3CCc4c(cc(Cn5ccnc5)cc4-c4cn(C)nc4C(F)(F)F)C3=O)cc(C)nc2c(OC)n1`, the viability, T/C (compound 0.0316 µM) is 87% and 98.2% and 83.5%; the viability, T/C (compound 0.1 µM) is 84.3% and 88% and 82%; the viability, T/C (compound 0.316 µM) was 97.7% and 105% and 92.7%; the viability, T/C (compound 1 µM) was 61.2% and 84.8% and 84%; the viability, T/C (compound 3.16 µM) was 65% and 78.1% and 61.3%; the viability, T/C (compound 10 µM) was 54.8% and 53.6% and 58.1%. Further, where the note is “curve of compound”, the IC50 was above 10 µM.

Consider `CC1COCCN1c1cc(-c2ccnn2C)c2ccnc(-c3ccn[nH]3)c2n1` (stereo unspecified), for which the viability, T/C was 70% and 80.3% and 83.9% (compound 0.0316 µM); 59.9% and 64.2% and 58.6% (compound 0.1 µM); 40.7% and 40% and 54.9% (compound 0.316 µM); 41.7% and 35.7% and 48.2% (compound 1 µM); 41.2% and 43.7% and 44.5% (compound 3.16 µM); 44.9% and 44.1% and 48% (compound 10 µM). Also, the IC50 (curve of compound) was 0.19 µM and 0.202 µM and 0.558 µM.

The values are drawn from PubChem BioAssay AID1963836 (Molecular Pharmacology Branch, DTP, NCI, 2024).
